Here are results for nine compounds from publication PMC4947994 (Acta Naturae, 2016).

In data set [1] the test system is HCC1937 cells. Put plainly: Cytotoxicity: Sub-G1 population by flow cytometry. It counts as cell-based, human. Conditions: for Sub-G1 population: 72 h. On the procedure:
(§1) A BRCA1-deficient human breast cancer line HCC1937 (ATCC CRL-2336) was cultured in DMEM supplemented with 10% heat-inactivated fetal bovine serum, penicillin/streptomycin (100 U/ml), and pyruvate (0,11 mg/ml) at 37°C in 20% O2 humidified atmosphere. The cells were maintained in a logarithmic growth phase for all experiments.
(§2) To perform cell cycle analysis, the cells were then harvested after 72 hours, fixed with 70% EtOH (final concentration) for 60 min on ice, rinsed in PBS, and stained in a 500 •µl solution containing 50 •µg/ml propidium iodide and 25 •µg/ml RNase A for 15 min. Data were acquired by a BD FACS CantoII flow cytometer (BD Biosciences) and analyzed using the FACSDiva software. The cleavage of the fluorogenic peptide substrate […] was measured using a fluorometric assay. Upon treatment with cytotoxic agents, the cells were incubated for 48 hours, then harvested and washed with PBS. After centrifugation, they were re-suspended in PBS at a concentration of 2 × 10^6 cells/100 μl. Then, 25 μl of the suspension was added to a 96-well plate and mixed with a DEVD peptide substrate dissolved in a standard reaction buffer (100 mM HEPES, 10% sucrose, 5 mM DTT, 0.001% NP- 40, and 0.1% CHAPS, pH 7.2). Cleavage of the fluorogenic peptide substrate was monitored by AMC liberation in a VarioScan Flash multimode detector (Thermo Scientific) using 380 nm excitation and 460 nm emission wavelengths. Measurements were done in at least two independent experiments.

Data set [2] has as its target T1, human PARP-1 (Homo sapiens, UniProt P09874).
T1 construct: made in house
Nature of the data set: biochemical. It counts as biochemical. To be noted: for IC50: auto-poly(ADP-ribosyl)ation, NAD+ 0.3 mM, 37°C. On the procedure: (§3) Recombinant human PARP-1 and murine PARP- 2 proteins were purified as described previously. Reaction of poly(ADP-ribosyl)ation catalyzed by PARP-1 and PARP-2 was performed at optimal conditions for each enzyme. Briefly, for PARP-1: 50 mM Tris-HCl pH 8.0, 20 mM MgCl2, 150 mM NaCl, 7 mM β-mercaptoethanol, activated DNA (2 o.u.280/ml, degree of activation 25%), 300 •µM NAD^+ (0.18 •µCi [^3H]NAD^+), 37°C. The reaction was started by adding PARP-1 up to a final concentration of 0.2 μM and was stopped after 1 min, placing the reaction mixture on paper filters (Whatman-1) soaked with a 5% solution of trichloroacetic acid. For PARP-2: 50 mM Tris-HCl pH 8.0, 40 mM NaCl, 0.1 mg/ml BSA, 8 mM MgCl2, 1 mM DTT, activated DNA (2 o.u.280/ml, degree of activation 25%), 400 •µM NAD^+ (0.4 •µCi [^3H]NAD^+), 37°C. The reaction was started by adding PARP-2 up to a final concentration of 0.2 μM and was stopped after 5 min, placing the reaction mixture on the paper filters. The filters were washed four times by the 5% trichloroacetic acid, then by 90% ethanol (to remove acid), and air-dried. The quantity of radiolabel included into the acid insoluble product was registered on a scintillation counter Tri-Carb 2800 (Perkin Elmer) in a toluene scintillator. The quantity of the radiolabeled product was determined at the initial rate period.
(§4) The PARP-inhibiting activity of the synthesized compounds was evaluated in a reaction of auto- poly(ADP-ribosyl)ation at a NAD^+ concentration of 0.3 mM for PARP-1 and 0.4 mM for PARP-2. Different concentrations of the tested compounds were added to the reaction mixture before adding the enzyme. Reaction and detection of the products were performed as described above. To determine the IC50 value (concentration of the compound required to reduce the enzyme activity by 50%), the effect of different concentrations of the inhibitor on the enzyme activity was examined. Measurements were done in at least two independent experiments. IC50 values were calculated using the Origin Pro 8.0 software by nonlinear regression analysis.

For data set [3], the system named is HCC1937 cells. Put plainly: Caspase-3-like activity (fluorogenic peptide substrate cleavage). The data set is classed as cell-based, human. To be noted: 7-methylguanine alone, 48 h. As for the experimental part: as §1
as §2, with “Then, 25 μl of the suspension was added to a 96-well plate and mixed with a DEVD peptide substrate dissolved in a standard reaction buffer (100 mM HEPES, 10% sucrose, 5 mM DTT, 0.001% NP- 40, and 0.1% CHAPS, pH 7.2).” left out, “Measurements were done in at least two independent experiments.” left out

Data set [4] concerns the target T2, murine PARP-2 (Mus musculus, UniProt O88554).
T2 construct: made in house
Nature of the data set: PARP-2 auto-poly(ADP-ribosyl)ation enzyme assay ([3H]NAD+ incorporation). It counts as biochemical. Conditions: for IC50: auto-poly(ADP-ribosyl)ation, NAD+ 0.4 mM, 37°C. On the procedure:
as §3, §4

For data set [5], the system named is PARP. Set-up: method as in PMID 11149897, PMID 16870158. To be noted: cited from earlier work.
The test system of data set [6] is PARP-1. To be noted: cited from earlier work.
Setting [7] is: replacement of 2-oxo group by amino group.

T1 sequence (P09874 whole entry): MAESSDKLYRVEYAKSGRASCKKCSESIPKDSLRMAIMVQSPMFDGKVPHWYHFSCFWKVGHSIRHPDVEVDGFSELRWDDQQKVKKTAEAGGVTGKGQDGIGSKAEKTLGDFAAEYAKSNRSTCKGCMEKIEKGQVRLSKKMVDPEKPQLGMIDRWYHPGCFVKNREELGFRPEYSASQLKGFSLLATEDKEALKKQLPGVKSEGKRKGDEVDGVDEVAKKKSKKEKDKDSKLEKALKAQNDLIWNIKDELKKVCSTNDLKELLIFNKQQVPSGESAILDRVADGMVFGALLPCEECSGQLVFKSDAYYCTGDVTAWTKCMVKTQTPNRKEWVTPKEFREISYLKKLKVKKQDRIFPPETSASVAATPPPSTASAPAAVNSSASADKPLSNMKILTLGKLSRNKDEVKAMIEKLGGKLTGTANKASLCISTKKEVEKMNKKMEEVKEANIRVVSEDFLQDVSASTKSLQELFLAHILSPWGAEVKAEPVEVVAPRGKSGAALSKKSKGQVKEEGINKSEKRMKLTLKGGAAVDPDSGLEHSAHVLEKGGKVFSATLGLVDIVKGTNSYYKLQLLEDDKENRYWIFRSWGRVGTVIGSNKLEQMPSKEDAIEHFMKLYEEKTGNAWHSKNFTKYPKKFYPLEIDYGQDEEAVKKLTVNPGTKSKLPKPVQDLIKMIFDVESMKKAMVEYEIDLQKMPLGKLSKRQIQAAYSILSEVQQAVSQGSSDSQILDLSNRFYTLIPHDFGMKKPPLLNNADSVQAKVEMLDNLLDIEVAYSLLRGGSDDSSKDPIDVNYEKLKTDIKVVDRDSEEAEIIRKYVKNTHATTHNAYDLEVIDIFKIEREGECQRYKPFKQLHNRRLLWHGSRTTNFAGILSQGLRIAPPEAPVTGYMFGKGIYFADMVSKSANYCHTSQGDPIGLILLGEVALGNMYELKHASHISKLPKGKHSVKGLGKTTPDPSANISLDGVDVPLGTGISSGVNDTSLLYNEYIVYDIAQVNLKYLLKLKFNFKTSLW
T2 sequence (O88554 whole entry): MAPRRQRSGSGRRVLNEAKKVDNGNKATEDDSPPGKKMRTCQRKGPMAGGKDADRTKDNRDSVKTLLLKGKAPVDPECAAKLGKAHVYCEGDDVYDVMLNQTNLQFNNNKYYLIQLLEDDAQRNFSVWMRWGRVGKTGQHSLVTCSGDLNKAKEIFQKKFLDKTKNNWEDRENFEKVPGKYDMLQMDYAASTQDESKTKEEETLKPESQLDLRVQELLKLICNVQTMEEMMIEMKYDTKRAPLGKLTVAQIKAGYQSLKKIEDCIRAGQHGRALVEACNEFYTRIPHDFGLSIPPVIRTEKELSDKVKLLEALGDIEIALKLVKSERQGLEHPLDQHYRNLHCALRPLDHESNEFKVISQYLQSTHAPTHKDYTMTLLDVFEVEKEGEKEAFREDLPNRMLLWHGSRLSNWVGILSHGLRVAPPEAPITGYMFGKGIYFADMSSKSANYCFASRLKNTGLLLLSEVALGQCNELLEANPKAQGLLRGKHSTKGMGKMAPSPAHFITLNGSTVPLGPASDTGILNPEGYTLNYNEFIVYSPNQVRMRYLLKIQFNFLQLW

Take `Cn1cnc2nc(N)[nH]c(=O)c21` [7-methylguanine, 7-Methylguanine]: in data set [1] (7-methylguanine 150 μM alone), the Sub-G1 population entry was “around 2%”. For the same compound, the cytotoxicity result in data set [1] (at the PARP inhibitory concentration, 7-methylguanine alone) is “not cytotoxic”. The IC50 in data set [2] came out at 150 µM; in data set [4], 50 µM. Besides, in data set [2] (setting [7]), the “increase in the ability to inhibit PARP-1 compared with 7-methylxanthine” value came to 5 fold. Also, the caspase-3 activation result in data set [3] was “no caspase-3 activation”. For the same compound, the “increase in the ability to inhibit PARP-2 compared with 7-methylxanthine” value in data set [4] (setting [7]) is 3 fold.
With `O=c1[nH]cnc2nc[nH]c12` [hypoxanthine], the PARP inhibitory effect result in data set [5] was “relatively weak inhibitory effect”.
In the case of `Cn1cnc2nc[nH]c(=O)c21` [7-methylhypoxanthine, 7-Methylhypoxanthine], the IC50 in data set [2] stood at 780 µM; in data set [4], 620 µM.
Take `Cc1c[nH]c(=O)[nH]c1=O` [thymine]: in data set [5], the PARP inhibitory effect result is “relatively weak inhibitory effect”.
For `O=c1[nH]c(=O)c2nc[nH]c2[nH]1` [xanthine, reference compound], the PARP-1 inhibition result in data set [6] is “does not show inhibition”.
For the compound `N.N.[Cl][Pt][Cl]` [cisplatin, reference compound], the Sub-G1 population in data set [1] (cisplatin 70 μM alone) was 34%.
`CCn1cnc2[nH]c(N)nc(=O)c21` [7-ethylguanine, 7-Ethylguanine]: the IC50 in data set [2] turned out to be 230 µM; in data set [4] it was 90 µM.
`COc1cccc2c1C(=O)c1c(O)c3c(c(O)c1C2=O)C[C@@](O)(C(=O)CO)C[C@@H]3O[C@H]1C[C@H](N)[C@H](O)[C@H](C)O1` [doxorubicin, reference compound] returned a Sub-G1 population in data set [1] (doxorubicin 1 μM alone) of 32%.
On to `Cn1cnc2[nH]c(=O)[nH]c(=O)c21` [7-methylxanthine, 7-Methylxanthine], for which the PARP-1 inhibition entry in data set [6] is given as “moderate inhibitor”. For the same compound, the values for the IC50 in data set [2] and in data set [4] were 800 µM and 160 µM, respectively.
